Laboratory results taken from patent US20250222146A1, “Radiopharmaceuticals Targeting Somatostatin Receptor 2 and Uses Thereof” (RayzeBio, Inc., priority 2023, published 2025).
Numbered stars: 1 amine (or outer) side, 2 acyl side, 3 side chain; on linkers, the order of the positions; unused ones are H or OH. Square brackets hold non-standard residues; d marks the D form. Side chains are listed from the residue outwards. Peptide text beside a SMILES is read from it. * marks the point of attachment. DOTA(Lu)NH(CH2)6NHCOCH2 = O=C(CN1CCN2CCN3CCN(CC1)CC(=O)[O][Lu]([O]C(=O)C2)[O]C(=O)C3)NCCCCCCNC(=O)C*; X12 = O=C1CN2CCN3CCN(CC(=O)N4CCC(CC(=O)*)CC4)CCN(CC2)CC(=O)[O][Lu]([O]1)[O]C(=O)C3; X9 = O=C1CN2CCN3CCN(CC(=O)N4CC(C(=O)*)C4)CCN(CC2)CC(=O)[O][Lu]([O]1)[O]C(=O)C3; DOTA(Lu) = O=C1CN2CCN3CCN(CC(=O)*)CCN(CC2)CC(=O)[O][Lu]([O]1)[O]C(=O)C3; Ala(piperidin-4-yl) = O=C([C@H](CC1CCN([*:3])CC1)N[*:1])[*:2]; dTrp(βS-Me) = C[C@@H](c1c[nH]c2ccccc12)[C@@H](N)C(=O)O; X11 = O=C1CN2CCN(CCN(CC(=O)*)CC2)CC(=O)[O][Ga+][O]1; dTrp(5-Me) = Cc1ccc2[nH]cc(C[C@@H](N)C(=O)O)c2c1; Ala(piperazin-1-yl) = N[C@@H](CN1CCNCC1)C(=O)O; Phe(4-CH2NH2) = NCc1ccc(C[C@H](N)C(=O)O)cc1; Trx = NC[C@H]1CC[C@H](C(=O)O)CC1; NMehCys = CN[C@@H](CCS)C(=O)O; NMeK = CN[C@@H](CCCCN)C(=O)O; Ava = NCCCCC(=O)O

Each compound was assayed against SSTR2 (Homo sapiens, UniProt P30874) (assay: SSTR binding affinity by radioligand binding competition assay ([125I]-Tyr11-Somatostatin, membrane extracts)). Conditions: SSTR2 Ki, radioligand competition, [125I]-Tyr11-Somatostatin 0.1 nM, membrane extracts; Ki from IC50 by Cheng Prusoff.
SSTR2, sequence (P30874 whole entry): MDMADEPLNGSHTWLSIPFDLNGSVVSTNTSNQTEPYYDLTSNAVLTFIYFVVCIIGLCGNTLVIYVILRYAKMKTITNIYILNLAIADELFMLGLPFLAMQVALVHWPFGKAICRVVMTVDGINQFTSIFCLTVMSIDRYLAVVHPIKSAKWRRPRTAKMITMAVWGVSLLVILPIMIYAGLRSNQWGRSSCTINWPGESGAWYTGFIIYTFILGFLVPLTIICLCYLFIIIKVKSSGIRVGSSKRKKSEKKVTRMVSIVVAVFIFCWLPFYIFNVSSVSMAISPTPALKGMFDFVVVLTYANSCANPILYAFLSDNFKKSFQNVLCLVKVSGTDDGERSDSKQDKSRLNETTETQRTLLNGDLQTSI
Protocol: Macrocyclic peptides in this invention were tested for binding to SSTR protein by a radioligand binding competition assay. For radioligand binding assay, competition binding is performed in duplicate in the wells of a 96 well plate containing binding buffer (HEPES 25 mM pH 7.4, MgCl2 5 mM, CaCl2 1 mM, BSA 0.5%, Saponine 10 μg/ml)), membrane extracts (0.6 μg protein/well), radiotracer ([125I]-Tyr11-Somatostatin, Perkin Elmer NEX389) and test compound. Nonspecific binding is determined by co-incubation with 200-fold excess of cold competitor (SST28). The samples are incubated in a final volume of 0.1 ml for 60 min at room temperature and then filtered over UniFilter-96 GF/C (Revvity 6055690) filter plates. Filters are washed six times with 0.5 ml of ice-cold washing buffer (HEPES 25 mM pH 7.4, MgCl2 5 mM, CaCl2 1 mM) and 50 μl of Microscint 20 (Packard) are added in each well. The plates are incubated 15 min on an orbital shaker and then counted with a TopCount™ for 1 min/well. For IC50 to Ki determination, the Cheng Prusoff equation is used: Ki=IC50/(1+ [tracer]/Kd). [Tracer] is 0.1 nM as mentioned above.

Structure (SMILES) | Ki
C[C@@H](O)[C@@H]1NC(=O)[C@@H](CCCCN)NC(=O)[C@@H](Cc2c[nH]c3ccccc23)NC(=O)[C@H](Cc2ccc(O)cc2)NC(=O)[C@H](CCSCC(=O)NCCCCCCNC(=O)CN2CCN3CCN4CCN(CC2)CC(=O)[O][Lu]([O]C(=O)C3)[O]C(=O)C4)N(C)C(=O)[C@H](Cc2ccccc2)NC1=O [RB-0005827] | 10 to 33.3 nM

Same assay, conditions: radioligand competition, [125I]-Tyr11-Somatostatin 0.1 nM, membrane extracts; Ki from IC50 by Cheng Prusoff; read-out: SSTR2 Ki

Structure (SMILES) | Ki
C[C@@H](O)[C@@H]1NC(=O)[C@H](CC2CCNCC2)NC(=O)[C@@H]([C@@H](C)c2c[nH]c3ccccc23)NC(=O)[C@H](Cc2ccc(O)cc2)NC(=O)[C@H](CCCCNC(=O)CCCCNC(=O)CN2CCN3CCN4CCN(CC2)CC(=O)[O][Lu]([O]C(=O)C3)[O]C(=O)C4)N(C)C(=O)[C@H](Cc2ccccc2)NC1=O [RB-0006406] (cyclo(F[NMeK]([Ava-DOTA(Lu)])Y[dTrp(βS-Me)][Ala(piperidin-4-yl)]T)) | 1 to 3.33 nM
C[C@@H](O)[C@@H]1NC(=O)[C@H](CCCCN)NC(=O)[C@@H](Cc2c[nH]c3ccccc23)NC(=O)[C@H](Cc2ccc(O)cc2)NC(=O)[C@H](CCCSCC(=O)NCCOCCNC(=O)CN2CCN3CCN4CCN(CC2)CC(=O)[O][Lu]([O]C(=O)C3)[O]C(=O)C4)N(C)C(=O)[C@H](Cc2ccccc2)NC1=O [RB-0003486] | < 1 nM
C[C@@H](O)[C@@H]1NC(=O)[C@H](CC2CCNCC2)NC(=O)[C@@H]([C@@H](C)c2c[nH]c3ccccc23)NC(=O)[C@H](Cc2ccc(O)cc2)NC(=O)[C@H](CCCCNC(=O)CN2CCN3CCN(CC2)CC(=O)[O][Ga+][O]C(=O)C3)N(C)C(=O)[C@H](Cc2ccccc2)NC1=O [RB-0006488] (cyclo(F[NMeK](X11)Y[dTrp(βS-Me)][Ala(piperidin-4-yl)]T)) | 1 to 3.33 nM
C[C@@H](O)[C@@H]1NC(=O)[C@H](CC2CCNCC2)NC(=O)[C@@H]([C@@H](C)c2c[nH]c3ccccc23)NC(=O)[C@H](Cc2ccc(O)cc2)NC(=O)[C@H](CCCCNC(=O)C2CN(C(=O)CN3CCN4CCN5CCN(CC3)CC(=O)[O][Lu]([O]C(=O)C5)[O]C(=O)C4)C2)N(C)C(=O)[C@H](Cc2ccccc2)NC1=O [RB-0006455] (cyclo(F[NMeK](X9)Y[dTrp(βS-Me)][Ala(piperidin-4-yl)]T)) | 1 to 3.33 nM
Cc1ccc2[nH]cc(C[C@H]3NC(=O)[C@H](Cc4ccc(O)cc4)NC(=O)[C@H](CCSCC(=O)NCCCCCCNC(=O)CN4CCN5CCN6CCN(CC4)CC(=O)[O][Lu]([O]C(=O)C5)[O]C(=O)C6)N(C)C(=O)[C@H](Cc4ccccc4)NC(=O)[C@H]([C@@H](C)O)NC(=O)[C@H](CC4CCNCC4)NC3=O)c2c1 [RB-0006074] (cyclo(F[NMehCys](DOTA(Lu)NH(CH2)6NHCOCH2)Y[dTrp(5-Me)][Ala(piperidin-4-yl)]T)) | 3.33 to 10 nM
C[C@@H](O)[C@@H]1NC(=O)[C@H](Cc2ccc(CN)cc2)NC(=O)[C@@H]([C@@H](C)c2c[nH]c3ccccc23)NC(=O)[C@H](Cc2ccc(O)cc2)NC(=O)[C@H](CCSCC(=O)NCCCCCCNC(=O)CN2CCN3CCN4CCN(CC2)CC(=O)[O][Lu]([O]C(=O)C3)[O]C(=O)C4)N(C)C(=O)[C@H](Cc2ccccc2)NC1=O [RB-0006009] (cyclo(F[NMehCys](DOTA(Lu)NH(CH2)6NHCOCH2)Y[dTrp(βS-Me)][Phe(4-CH2NH2)]T)) | 1 to 3.33 nM
C[C@@H](O)[C@@H]1NC(=O)[C@H](CC2CCNCC2)NC(=O)[C@@H]([C@@H](C)c2c[nH]c3ccccc23)NC(=O)[C@H](Cc2ccc(O)cc2)NC(=O)[C@H](CCCCNC(=O)CC2CCN(C(=O)CN3CCN4CCN5CCN(CC3)CC(=O)[O][Lu]([O]C(=O)C5)[O]C(=O)C4)CC2)N(C)C(=O)[C@H](Cc2ccccc2)NC1=O [RB-0006458] (cyclo(F[NMeK](X12)Y[dTrp(βS-Me)][Ala(piperidin-4-yl)]T)) | 3.33 to 10 nM
C[C@@H](O)[C@@H]1NC(=O)[C@H](CN2CCNCC2)NC(=O)[C@@H]([C@@H](C)c2c[nH]c3ccccc23)NC(=O)[C@H](Cc2ccc(O)cc2)NC(=O)[C@H](CCCCNC(=O)[C@H]2CC[C@H](CNC(=O)CN3CCN4CCN5CCN(CC3)CC(=O)[O][Lu]([O]C(=O)C4)[O]C(=O)C5)CC2)N(C)C(=O)[C@H](Cc2ccccc2)NC1=O [RB-0006420] (cyclo(F[NMeK]([Trx-DOTA(Lu)])Y[dTrp(βS-Me)][Ala(piperazin-1-yl)]T)) | 1 to 3.33 nM
